Measurements reported in patent US10590101B2, “Benzo-N-hydroxy amide compounds having antitumor activity” (ITALFARMACO SPA, priority 2016, dated 2020).
Like-named read-outs stand apart in the source and are kept apart here.

Legend:
[1] = system: HCT116 cells; assay: Cytotoxicity in vitro, HCT116 (CellTiter 96 Aqueous One Solution); type: cell-based, human; conditions: Homo sapiens, HCT-116, 72 h incubation
Excerpt: The compounds of the present invention are small molecules of formula (I), characterised by the presence of a metal chelating moiety, the benzohydroxamate, an α-aminoacidic N-acylated central core and an α,β-unsaturation at the acyl-moiety. This particular structural feature seems responsible for the high inhibitory activity on cancer stem cell lines and on HCT116 cells (ATCC CCL-247), a human colorectal carcinoma cell line widely used in cancer biology both in vitro and in vivo (Botchkina Cancer Genom Proteom 6, 19-30, 2009; Yeung PNAS 107, 3722-3727, 2010).
(§1) The cytotoxicity activity was evaluated as follows: • Pre-B leukemia cell line 697 was seeded at 2×10^5 c/well; • Colon carcinoma cell lines HCT116, HT29 and COLO2015 were seeded at 4×10^3, 4×10^3 and 10×10^3 c/well respectively; • Primary human kidney cells were seeded at 1.5×10^3 and 6.5×10^3 in two separate experiments; • Human PBMC were seeded at 5×10^5 c/well; • Colon cancer stem cells (CSC) were seeded at 3×10^3;
(§2) Testing compounds were added after 24 h and incubated for 72 h (48 h for 697 cell line). The concentrations of molecules ranged from 10000 nM to 1.5 nM (10000 to 1 nM for 697 cell line). The cytotoxic activity of compounds was evaluated using the CellTiter 96® Aqueous One Solution Cell Proliferation Assay (Promega) which measures the functionality of mitochondria according to manufacturer's instructions. For Colon cancer stem cells viability was determined with CellTiter-Glo Luminescent cell viability assay (Promega).
(§3) The activity of compounds at any dose is calculated as percentage of inhibition versus vehicle-treated control (=0). The IC50s are extrapolated from the inhibition dose/response curve using GraphPad Prism program.

[2] = system: Colon cancer stem cells (CSC) CSC1; assay: Cytotoxicity in vitro, colon cancer stem cells CSC1 (CellTiter-Glo); type: cell-based; conditions: 72 h incubation
Experimental: as §1, §2, §3

[3] = system: Pre-B leukemia cell line 697; assay: Primary cytotoxicity screening, 697 cell line (CellTiter 96); type: cell-based; conditions: Table 1; 48 h incubation; read-out: CyTox697
Experimental: as §1, §2, §3

[4] = system: HT29 colon cancer cell line; assay: Cytotoxicity in vitro, HT29 (CellTiter 96); type: cell-based; conditions: Homo sapiens, HT-29; 72 h incubation; read-out: HT29 IC 50
Experimental: as §1, §2
(§4) The compound cytotoxicity was confirmed by further assays on two other colon cancer cell lines HT29 (ATCC HTB38) and Colo205 (ATCC CCL222) and on colon cancer stem cells (CSCs) (see table 2 and 3). It is worth noting that cytotoxic activity toward human primary kidney cells and peripheral blood mononuclear cells (PBMC) isolated from healthy donors was lower compared to tumor cells cytotoxicity (see table 4).
as §3

[5] = system: COLO205 colon cancer cell line; assay: Cytotoxicity in vitro, COLO205 (CellTiter 96); type: cell-based; conditions: Homo sapiens, COLO 205; 72 h incubation; read-out: COLO205 IC 50
Experimental: as §1, §2, §4, §3

[6] = system: Colon cancer stem cells (CSC) CSC2; assay: Cytotoxicity in vitro, colon cancer stem cells CSC2 (CellTiter-Glo); type: cell-based; conditions: 72 h incubation; read-out: CSC2 IC 50
Experimental: as §1, §2, §3

[7] = system: Colon cancer stem cells (CSC) CSC3; assay: Cytotoxicity in vitro, colon cancer stem cells CSC3 (CellTiter-Glo); type: cell-based; conditions: 72 h incubation; read-out: CSC3 IC 50
Experimental: as §1, §2, §3

[8] = system: Human PBMC; assay: Cytotoxicity in vitro, PBMC from healthy donors (CellTiter 96); type: cell-based
Experimental: as §1, §2, §4, §3

[9] = system: Primary human kidney cells; assay: Cytotoxicity in vitro, primary renal cells (CellTiter 96); type: cell-based
Experimental: as §1, §2, §4, §3

[10] = system: HCT116 xenograft; assay: Antitumor activity in vivo, sc xenograft model of colon cancer; set-up: species or system CD1 nude female mice; conditions: ip
Experimental: Female CD-1 nude mice, 5 weeks of age and 20 to 22 g of weight, were housed in the animal house of the Italfarmaco Research Centre. Mice were maintained in micro isolator cages and supplied with sterile food and water under standard conditions.
Xenografts were generated by sc injection of 7×10^6 HCT116 cells in the right flank of the animals.
Tumor sizes were determined by caliper measurements and tumor volumes were calculated according to the following formula: Tumor volume (mm^3)=(w2×1)/2 where “w” is the width and “l” is the length of the carcinoma in mm.
Tumor growth was followed by volume measurement three times a week.
Tumor mass reached a measurable size three weeks after transplantation, at this time, treatments began.
Two reference compounds were also used in the experiment. The cinnamic hydroxamic acid panobinostat and 5-FU. The compounds were administered at the MTD according to previous experiments or as described in the literature.

[11] = Table 2, read-out: HCT-116 IC 50
[12] = PBMC 1, 72 h incubation, read-out: PBMC 1 IC 50
[13] = PBMC 2, 72 h incubation, read-out: PBMC 2 IC 50
[14] = Renal.ep1, 72 h incubation, read-out: Renal.ep1 IC 50
[15] = Renal.ep2, 72 h incubation, read-out: Renal.ep2 IC 50

Row | Compound | IC50 ([1]; Table 1, read-out: HCT116) [nM] | IC50 ([2]; Table 1, read-out: CSC1) [nM] | IC50 [3] [nM] | other results
1 | COc1ccc(C[C@H](NC(=O)c2ccc3c(c2)OCO3)C(=O)Nc2ccc(C(=O)NO)cc2)cc1 | 24 | 24 | 21 | –
2 | COc1ccc(C[C@H](NC(=O)Cc2ccc3c(c2)OCO3)C(=O)Nc2ccc(C(=O)NO)cc2)cc1 | 554 | 280 | 168 | –
3 | COc1ccc(C[C@H](NC(=O)CCc2ccc3c(c2)OCO3)C(=O)Nc2ccc(C(=O)NO)cc2)cc1 | 702 | 400 | 496 | –
4 | COc1ccc(C[C@H](NC(=O)c2ccccc2)C(=O)Nc2ccc(C(=O)NO)cc2)cc1 | 76 | 48 | 54 | –
5 | COc1ccc(C[C@H](NC(=O)Cc2ccccc2)C(=O)Nc2ccc(C(=O)NO)cc2)cc1 | 316 | 160 | 72 | –
6 | COc1ccc(C[C@H](NC(=O)CCc2ccccc2)C(=O)Nc2ccc(C(=O)NO)cc2)cc1 | 431 | 136 | 53 | –
7 | COc1ccc(C[C@H](NC(=O)COc2ccccc2)C(=O)Nc2ccc(C(=O)NO)cc2)cc1 | 194 | – | 44 | –
8 | O=C(NO)c1ccc(NC(=O)[C@H](Cc2ccccc2)NC(=O)c2ccc3c(c2)OCO3)cc1 | 79 | – | 18 | –
9 | O=C(Cc1ccc2c(c1)OCO2)N[C@@H](Cc1ccccc1)C(=O)Nc1ccc(C(=O)NO)cc1 | 1070 | 208 | 127 | –
10 | O=C(CCc1ccc2c(c1)OCO2)N[C@@H](Cc1ccccc1)C(=O)Nc1ccc(C(=O)NO)cc1 | 900 | 336 | 203 | –
11 | O=C(NO)c1ccc(NC(=O)[C@H](Cc2ccccc2)NC(=O)c2ccccc2)cc1 | 184 | 96 | 105 | –
12 | O=C(Cc1ccccc1)N[C@@H](Cc1ccccc1)C(=O)Nc1ccc(C(=O)NO)cc1 | 237 | 192 | 90 | –
13 | O=C(CCc1ccccc1)N[C@@H](Cc1ccccc1)C(=O)Nc1ccc(C(=O)NO)cc1 | 806 | 332 | 770 | –
14 | O=C(COc1ccccc1)N[C@@H](Cc1ccccc1)C(=O)Nc1ccc(C(=O)NO)cc1 | 466 | 424 | 59 | –
15 | COc1ccc(C[C@H](NC(=O)/C=C/c2ccc3c(c2)OCO3)C(=O)Nc2ccc(C(=O)NO)cc2)cc1 [Compound 1D, (2S)-2-[[(E)-3-(1,3-benzodioxol-5-yl)prop-2-enoyl]amino]-N-[4-(hydroxycarbamoyl)phenyl]-3-(4-methoxyphenyl)propanamide] | – | – | – | IC50 [1, 11]: 18 nM; IC50 ([2]; Table 3, read-out: CSC1 IC 50): 19 nM; IC50 [4]: 157 nM; IC50 [5]: 146 nM; IC50 [6]: 114 nM; IC50 [7]: 85 nM; IC50 [8, 12]: 80 nM; IC50 [8, 13]: 152 nM; IC50 [9, 14]: 462 nM; IC50 [9, 15]: 321 nM; % inhib tumor vs CTRL after 44 days of treatment ([10]; 0.5 mg/kg): 23%; % inhib tumor vs CTRL after 44 days of treatment ([10]; 1 mg/kg): 22%
16 | COc1ccc(C[C@H](NC(=O)/C=C/c2ccccc2)C(=O)Nc2ccc(C(=O)NO)cc2)cc1 [Compound 2D, (2S)—N-[4-(hydroxycarbamoyl)phenyl]-3-(4-methoxyphenyl)-2-[[(E)-3-phenylprop-2-enoyl]amino]propanamide] | – | – | – | IC50 [1, 11]: 14 nM; IC50 ([2]; Table 3, read-out: CSC1 IC 50): 50 nM; IC50 [4]: 61 nM; IC50 [5]: 73 nM; IC50 [6]: 100 nM; IC50 [7]: 70 nM; IC50 [8, 12]: 89 nM; IC50 [8, 13]: 42 nM; % inhib tumor vs CTRL after 44 days of treatment ([10]; 1 mg/kg): 33%
17 | O=C(/C=C/c1ccc2c(c1)OCO2)N[C@@H](Cc1ccccc1)C(=O)Nc1ccc(C(=O)NO)cc1 [Compound 4D, (2S)-2-[[(E)-3-(1,3-benzodioxol-5-yl)prop-2-enoyl]amino]-N-[4-(hydroxycarbamoyl)phenyl]-3-phenyl-propanamide] | – | – | – | IC50 [1, 11]: 19 nM; IC50 ([2]; Table 3, read-out: CSC1 IC 50): 13 nM; IC50 [4]: 215 nM; IC50 [5]: 201 nM; IC50 [6]: 102 nM; IC50 [7]: 91 nM; IC50 [8, 12]: 359 nM; IC50 [8, 13]: 601 nM; IC50 [9, 14]: 778 nM; % inhib tumor vs CTRL after 44 days of treatment ([10]; 5 mg/kg): 54%; % inhib tumor vs CTRL after 44 days of treatment ([10]; 10 mg/kg): 39%
18 | O=c1[nH]cc(F)c(=O)[nH]1 [Compound 5-FU, 5-FU, reference compound] | – | – | – | % inhib tumor vs CTRL after 44 days of treatment ([10]; 10 mg/kg): 36%; % inhib tumor vs CTRL after 44 days of treatment ([10]; 70 mg/kg, once a week): 61%
19 | O=C(/C=C/c1ccccc1)N[C@@H](Cc1ccccc1)C(=O)Nc1ccc(C(=O)NO)cc1 [Compound 5D, (2S)—N-[4-(hydroxycarbamoyl)phenyl]-3-phenyl-2-[[(E)-3-phenyl-2-enoyl]amino]propanamide] | – | – | – | IC50 [1, 11]: 14 nM; IC50 ([2]; Table 3, read-out: CSC1 IC 50): 26 nM; IC50 [4]: 197 nM; IC50 [5]: 221 nM; IC50 [6]: 102 nM; IC50 [7]: 230 nM; IC50 [8, 12]: 147 nM; IC50 [8, 13]: 595 nM; IC50 [9, 14]: 1060 nM; IC50 [9, 15]: 511 nM; % inhib tumor vs CTRL after 44 days of treatment ([10]; 5 mg/kg): 46%
20 | Cc1[nH]c2ccccc2c1CCNCc1ccc(/C=C/C(=O)NO)cc1 [Panobinostat, panobinostat, reference compound] | – | – | – | % inhib tumor vs CTRL after 44 days of treatment ([10]; 1 mg/kg): 34%
21 | COc1ccc(C[C@H](NC(=O)/C=C/c2ccc3c(c2)OCO3)C(=O)Nc2ccc(C(=O)NO)cc2)cc1 [drawing 46] | 18 | 192 | 3 | –
22 | COc1ccc(C[C@H](NC(=O)/C=C/c2ccccc2)C(=O)Nc2ccc(C(=O)NO)cc2)cc1 [drawing 50] | 13 | 40 | 22 | –
23 | O=C(/C=C/c1ccc2c(c1)OCO2)N[C@@H](Cc1ccccc1)C(=O)Nc1ccc(C(=O)NO)cc1 [drawing 55] | 11 | 37 | 85 | –
24 | O=C(/C=C/c1ccccc1)N[C@@H](Cc1ccccc1)C(=O)Nc1ccc(C(=O)NO)cc1 [drawing 59] | 10 | 73 | 45 | –
